Data as given in patent US10905118B2, “Triscationic amphiphile compounds, compositions, and methods for making same” (James Madison Innovations, Inc., priority 2014, dated 2021).
Values after ≈ are worked out from the molar mass of the structure shown.

Experiments:
[1] = tested on: Pseudomonas aeruginosa; settings: literature comparison values; cited from earlier work
[2] = tested on: Bacillus cereus; test: Minimum inhibitory concentration, B. cereus; assay type: cell-based; settings: Mueller-Hinton Broth, 37° C., 72 h
Procedure: (§1) The MIC values of all compounds from both double-tailed series were determined for four Gram-positive (Staphylococcus aureus, Enterococcus faecalis, Streptococcus agalactiae, and Bacillus cereus) and two Gram-negative (Escherichia coli and Pseudomonas aeruginosa) strains, which are shown in Table 3.
(§2) The Gram-positive bacterial strains used tested were Staphylococcus aureus subsp. aureus ATCC® 29213™, Enterococcus faecalis ATCC® 29212™, Bacillus cereus, and Streptococcus agalactiae J48.^58 The Gram-negative bacterial strains used were Escherichia coli ATCC® 25922™ and Pseudomonas aeruginosa ATCC® 27853™. All strains were grown in 1× Mueller-Hinton Broth at 37° C. for 12-24 h. For the MIC and combination studies, bacterial suspensions were prepared by diluting overnight cultures to 5×10^6 CFU/mL in 2× Mueller-Hinton Broth, so that when amphiphile solutions are added the final broth strength is 1×.
(§3) The methods used to determine the MIC and MBC were performed as previously described and followed the standards set forth by the Clinical and Laboratory Standards Institute (See Ladow, J. E.; Warnock, D. C.; Hamill, K. M.; Simmons, K. L.; Davis, R. W.; Schwantes, C. R.; Flaherty, D. C.; Willcox, J. A. L.; Wilson-Henjum, K.; Caran, K. L.; Minbiole, K. P. C.; Seifert, K. Bicephalic amphiphile architecture affects antibacterial activity. Eur. J. Med. Chem. 2011, 46, 4219-4226 and P. A. Wayne Methods for dilution antimicrobial tests for bacteria that grow aerobically. 2009.). Briefly, compounds were serially diluted and 100 μL of each dilution were added to the wells of a 96-well flat-bottomed microtiter plate in triplicate. After adding 100 μL of the bacterial cell suspension, the plates were incubated at 37° C. for 72 h. […] The MIC was considered to be bactericidal if the MBC was the same concentration or one concentration higher in the dilution series as the MIC, per Motyl, M.; Dorso, K.; Barrett, J.; Giacobbe, R. Basic microbiological techniques used in antibacterial drug discovery. Curr. Protoc. Pharmacol. 2006, Chapter 13.

[3] = Isothermal titration calorimetry: critical aggregation concentration and thermodynamics of aggregation; assay type: physicochemical; settings: 37° C., single-tailed M-1,1,n series; for CAC: ITC
[4] = tested on: Pseudomonas aeruginosa; test: Minimum inhibitory concentration, P. aeruginosa; assay type: cell-based, Pseudomonas aeruginosa ATCC 27853; settings: Mueller-Hinton Broth, 37° C., 72 h
Procedure: as §1, §2, §3

[5] = tested on: Staphylococcus aureus; test: Minimum inhibitory concentration, S. aureus; assay type: cell-based, Staphylococcus aureus subsp. aureus ATCC 29213; settings: Mueller-Hinton Broth, 37° C., 72 h
Procedure: as §1, §2, §3

[6] = Isothermal titration calorimetry: critical aggregation concentration and thermodynamics of aggregation; assay type: physicochemical
Procedure: Isothermal titration calorimetry (ITC) was used to determine the critical aggregation concentration (CAC) and the thermodynamic parameters at 37° C. associated with aggregate formation for each double-tailed amphiphile for the M-P and M-1 series, as shown in Table 1.
A Nano ITC was used to measure the heat change associated with the deaggregation of amphiphiles via power compensation. A concentrated aqueous solution of amphiphile (>>CAC) was titrated into a thermally controlled sample cell, initially containing pure water, in a series of discrete injections. Isothermal titration calorimetry was used to determine the critical aggregation concentration (CAC) and ΔHagg. Shown in FIG. 5 is the heat rate associated with each injection versus time for 9 (M-1,14,14). Shown in FIG. 6 is the integration of the heat per injection normalized by the number of moles of each injection versus the increasing concentration of amphiphile in the well. In FIG. 6, inset, CAC is determined by calculating the first derivative the heat curve.
During initial injections (Range I), measured heat changes are due to both the dilution of aggregates and deaggregation. This can be observed in the first 10 injections, where aggregates absorbed heat and disassociated into dissolved monomers. The heat change produced by each injection was approximately constant in this range. In Range II, injected aggregates don't fully dissociate, reducing the total absorbed heat for each subsequent injection. At concentrations well above the CAC (Range III), absorbed heat is attributed only to the dilution of aggregates and is approximately constant. […] CAC and thermodynamic data were not determined for the amphiphiles with the shortest tails [1 (M-P,8,8) and 6 (M-1,8,8)] because the heat evolved during injection was […] the threshold of the instrument.
The difference between the average heat of injections in Range I, representing the total heat due to the dilution of aggregates and deaggregation, and the average heat of injections in Range III, representing the heat due solely to the dilution of aggregates, gives the heat of deaggregation, ΔHdeagg. The ΔHdeagg for compound 9 (M-1,14,14) is 37 kJ/mol, corresponding to a heat of aggregate formation, ΔHagg, of −37 kJ/mol (ΔHagg=−ΔHdeagg).
The ΔGagg can be approximated for the aggregation of nonionic amphiphiles by the equation: ΔGagg=RT ln(CAC/55.5) (3)
where m is the concentration of counterions that associate with a aggregate and n is the number of monomers that associate to form an aggregate. […] BBA-Biomembranes. 2000, 1508, 69-85.)
The entropy of aggregation (ΔSagg) is dictated by a combination of entropic factors that favor or disfavor aggregate formation and can be approximated using the Gibbs-Helmholtz equation: ΔGagg=ΔHagg−TΔSagg (5)
CAC and ΔHagg were determined using a Nano-ITC (TA-Instruments). Prior to each experiment the sample cell was washed with dH2O (300 mL), ethanol (100 mL), dH2O (300 mL) and nanopure water (200 mL). Next, 950 μL of nanopure water was added to the sample cell. A concentrated aqueous solution (>>CAC) of amphiphile was prepared and equilibrated at 37° C. A 250 μL syringe was filled with the aqueous solution, and loaded into the Nano ITC. Multiple single injections in aliquots of 5 μL were injected into the sample cell with time intervals varying from 300 s to 1400 s. Samples were continuously stirred (300 rpm) throughout the titration. The Nano-Analyze program (TA-Instruments) was used to analyze the data. CAC and ΔHagg values reported are the average of two or more repeat experiments for each amphiphile.

[7] = tested on: Enterococcus faecalis; test: Minimum inhibitory concentration, E. faecalis; assay type: cell-based, Enterococcus faecalis ATCC 29212; settings: Mueller-Hinton Broth, 37° C., 72 h
Procedure: as §1, §2, §3

[8] = tested on: Streptococcus agalactiae; test: Minimum inhibitory concentration, S. agalactiae; assay type: cell-based, Streptococcus agalactiae J48; settings: Mueller-Hinton Broth, 37° C., 72 h
Procedure: as §1, §2, §3

[9] = tested on: Escherichia coli; test: Minimum inhibitory concentration, E. coli; assay type: cell-based, Escherichia coli ATCC 25922; settings: Mueller-Hinton Broth, 37° C., 72 h
Procedure: as §1, §2, §3

[10] = ITC, 37° C., pure water, double-tailed M-P and M-1 series

Row | −TΔSmic ([6]; 37° C., Gibbs-Helmholtz equation, double-tailed series) [kcal/mol] | ΔGmic ([6]; 37° C., approximated with RT ln(CAC/55.5), double-tailed series) [kcal/mol] | CMC [6, 10] [mM] | ΔHmic [6, 10] [kcal/mol] | −TΔSagg term (sign, in words) ([6]; Table 1) | SMILES | MIC against P. aeruginosa (comparison drugs) [1] [µM] | MIC B. cereus (G+) [2] [µM] | ΔGagg [3] [kcal/mol] | −TΔSagg [3] [kcal/mol] | CAC [3] [mM] | MIC P. aeruginosa (G−) [4] [µM] | MIC S. aureus (G+) [5] [µM] | ΔHagg ([6]; ITC, 37° C.) [kcal/mol] | MIC E. faecalis (G+) [7] [µM] | MIC S. agalactiae (G+) [8] [µM] | MIC E. coli (G−) [9] [µM]
1 |  |  |  |  |  | NC[C@H]1O[C@H](O[C@H]2[C@H](O)[C@@H](O[C@H]3O[C@H](CO)[C@@H](O)[C@H](N)[C@H]3O)[C@H](N)C[C@@H]2N)[C@H](N)C[C@@H]1O [tobramycin] | 6.4 (≈ 2.99 µg/mL) |  |  |  |  |  |  |  |  |  | 
2 |  |  |  |  |  | CCCCCCCCCCCCCCCCCC[N+](C)(C)Cc1cc(C[N+](C)(C)C)cc(C[N+](C)(C)C)c1.[Br-].[Br-].[Br-] [Compound S6] |  | 4 | -5.74 | -0.574 | 5.0 | 125 | 16 | -5.26 | 4 | 2 | 16
3 |  |  |  |  |  | CCCCCCCCCCCCCC[N+](C)(C)Cc1cc(C[N+](C)(C)C)cc(C[N+](C)(C)C)c1.[Br-].[Br-].[Br-] [Compound S4] |  | 16 | -4.78 | -2.39 | 21 | >250 | 63 | -2.39 | 31 | 16 | 250
4 |  |  |  |  |  | CCCCCCCCCCCCCCCC[N+](C)(C)Cc1cc(C[N+](C)(C)C)cc(C[N+](C)(C)C)c1.[Br-].[Br-].[Br-] [Compound S5] |  | 4 | -5.26 | -2.03 | 9.2 | >250 | 31 | -3.35 | 8 | 4 | 31
5 |  |  |  |  |  | CCCCCCCCCCCCCCCCCCCCCC[N+](C)(C)Cc1cc(C[N+](C)(C)C)cc(C[N+](C)(C)C)c1.[Br-].[Br-].[Br-] [Compound S8] |  | >250 | -6.69 | 1.22 | 0.99 | >250 | >250 | -7.89 | >250 | >250 | 63
6 | -2.2 | -7.89 | 0.18 | -10 | positive | CCCCCCCCCCCCCCCC[N+](C)(C)Cc1cc(C[n+]2ccccc2)cc(C[N+](C)(C)CCCCCCCCCCCCCCCC)c1.[Br-].[Br-].[Br-] [Compound 5] |  | 32 |  |  |  | >250 | 32 |  | 32 | 4 | 125
7 |  |  |  |  |  | CCCCCCCCCCCCCCCCCCCC[N+](C)(C)Cc1cc(C[N+](C)(C)C)cc(C[N+](C)(C)C)c1.[Br-].[Br-].[Br-] [Compound S7] |  | 4 | -6.21 | 0.382 | 2.0 | 250 | 16 | -6.69 | 4 | 4 | 31
